This is an account of results in patent US20150290612A1 (priority 2012, published 2015).

In this experiment the target is Acetylcholinesterase (AChE) (Electrophorus electricus, UniProt O42275). Format: biochemical.

Each structure is given as a SMILES string.

Sequence of Acetylcholinesterase (AChE) (O42275 24-633): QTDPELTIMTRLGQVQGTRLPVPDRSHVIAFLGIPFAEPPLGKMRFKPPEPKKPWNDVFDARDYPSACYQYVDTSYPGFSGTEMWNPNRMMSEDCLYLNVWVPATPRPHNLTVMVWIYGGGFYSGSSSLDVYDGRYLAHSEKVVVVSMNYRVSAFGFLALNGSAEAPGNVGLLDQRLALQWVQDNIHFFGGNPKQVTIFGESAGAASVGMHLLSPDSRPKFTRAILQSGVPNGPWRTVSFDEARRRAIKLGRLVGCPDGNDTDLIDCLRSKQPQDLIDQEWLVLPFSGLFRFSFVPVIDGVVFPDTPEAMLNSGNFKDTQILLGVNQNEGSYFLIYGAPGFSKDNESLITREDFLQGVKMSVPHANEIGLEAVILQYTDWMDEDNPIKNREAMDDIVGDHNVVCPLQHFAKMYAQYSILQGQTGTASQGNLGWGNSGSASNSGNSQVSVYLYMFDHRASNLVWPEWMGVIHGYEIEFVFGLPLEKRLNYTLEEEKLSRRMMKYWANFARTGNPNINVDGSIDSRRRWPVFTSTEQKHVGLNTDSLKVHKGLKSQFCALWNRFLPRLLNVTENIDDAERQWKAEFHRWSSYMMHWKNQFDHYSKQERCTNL

As to `CCNc1nc(Cl)nc(NC(C)C)n1` [atrazine], the “Interference with analysis of organophosphates” value is “no interference”.
In the case of `CCNc1nc(Cl)nc(NCC)n1` [simazine] it was “no interference”.
